Experiments:
MCF7-Y537S cells [1] = test: Annexin-V analysis (apoptosis, FACS); assay type: cell-based, human; details: 1 μM for 72 hours
Text: (§1) One mechanism by which the Y537S mutation may promote mammosphere formation in the presence of Tamoxifen is by conferring resistance to apoptosis. Staining with annexin V may be used to detect apoptotic cells by its ability to bind to phosphatidylserine, a marker of apoptosis when it is on the outer leaflet of the plasma membrane. Increases in annexin V staining indicates an increase in apoptosis.
(§2) The data in FIGS. 4A-4C were obtained as follows. The transduced MCF7 cell lines were all plated in 6-well plates. On the next day, the cells were treated with 4-OHT (1 μM) for 72 hours. MCF7-EV cells were processed in parallel, as a negative control. […] For the data in these drawings, * indicates p<0.05.
(§3) Annexin-V analysis: Cell death was quantified by flow cytometry using propidium iodide (PI) and Annexin V-FITC (20). Briefly, 1.5×10^5 all the transfected cells were plated in 6 multi-well plate in complete media supplemented with 10% HiFBS. The next day, cells were treated with 1 μM of 4-OH-Tamoxifen (4-OHT) for 48 h and 72 h. Vehicle alone (DMSO) for control cells were processed in parallel. After 48 hours, cells were harvested and washed in cold phosphate-buffered saline (PBS). […] Cells were then analyzed by flow cytometry using a PE Texas Red signal detector for PI staining and a FITC signal detector to detect Annexin V binding. 30,000 events were recorded by FACS using Fortessa BD. […]

[2] = system: transfected MCF7 cell lines; test: Annexin-V analysis (apoptosis, FACS); assay type: cell-based, human; details: 1 μM for 72 hours
Text: as §1, §2, §3

MCF7-Y537S cells [3] = test: SRB survival assay (cell viability), 5-day exposure; assay type: cell-based, human; details: 4-OHT 1 μM, 5 days, vs control
Text: For FIG. 1, ** indicates p<0.005.

[4] = system: other MCF7 cell lines (ESR1 WT, Y537N, ErbB2, EV); details: 4-OHT 1 μM, 5 days
Protocol: To directly determine the validity of our model system, MCF7-Y537S cells were cultured for 5 days in the presence of Tamoxifen (1 μM) to assess its effect on cell viability. […] MCF7 cells were stably-transduced with either ESR1 (WT, Y537S, or Y537N) or ErbB2 (HER2), to genetically create a clinically relevant model of endocrine therapy resistance. Vector alone control MCF7 cells were generated in parallel (empty vector; EV; p-EV-105-puroR), as a negative control. […] The SRB assay was performed as a measure of cell viability and the experiment was carried out for 5 days.
Sulfo-rhodamine B (SRB) assay: SRB measures total biomass by staining cellular proteins.

MCF7-Y537S cells [5] = test: Mammosphere formation assay; assay type: cell-based, human; details: 72-hour pre-treatment with 1 μM, 5 days culture
Protocol: (§4) All of the transfected MCF7 cell lines were grown as mammospheres. […] In these figures, ** indicates p<0.005; and ns indicates not significant as evaluated by Student's t test.
(§5) MCF7 3D-mammosphere formation: A single cell suspension was prepared using enzymatic (lx Trypsin-EDTA, Sigma Aldrich, #T3924), and manual disaggregation (25 gauge needle). Cells were plated at a density of 500 cells/cm^2 in mammosphere medium (DMEM-F12+B27+20 ng/ml EGF+PenStrep) under non-adherent conditions, in culture dishes pre-coated with (2-hydroxyethylmethacrylate) (poly-HEMA, Sigma, #P3932), called “mammosphere plates.” Then, the cells were pre-treated for 72 hours with 1 μM of 4-OH-Tamoxifen. Vehicle alone (DMSO) control cells were processed in parallel. Afterwards, they were trypsined and seeded in mammosphere plates. Cells were grown for 5 days and maintained in a humidified incubator at 37° C. After 5 days of culture, 3D-spheres>50 μm were counted using an eye piece (“graticule”), and the percentage of cells plated which formed spheres was calculated and is referred to as percent mammosphere formation, and was normalized to one (1=100% MSF).

[6] = system: transfected MCF7 cell lines (other than Y537S and ESR1 WT); test: Mammosphere formation assay; assay type: cell-based, human; details: all transfected MCF7 cell lines except Y537S and ESR1 (WT), 72-hour pre-treatment with 1 μM, 5 days culture
Protocol: as §4, §5

Q: Which “pro-apoptotic effect (annexin V levels)” value (MCF7-Y537S cells [1]) does the source give for `CC/C(=C(\c1ccc(O)cc1)c1ccc(OCCN(C)C)cc1)c1ccccc1` [4-OHT, 4-OH-Tamoxifen] here?
A: specifically resistant to the pro-apoptotic effects

Q: What about the “annexin V levels” value [2] of the same molecule?
A: increased in all transfected cell lines

Q: And the “cell viability (SRB survival)” value (MCF7-Y537S cells [3])?
A: clearly show resistance

Q: And the “cell viability (SRB survival)” value [4]?
A: significant inhibitory effects

Q: And the mammosphere formation (MCF7-Y537S cells [5])?
A: remain largely unaffected

Q: And the “mammosphere formation efficiency (MFE)” value [6]?
A: inhibited mammosphere formation efficiency

From patent US12188936B2, “Biomarkers and therapeutics for endocrine therapy resistance” (LUNELLA BIOTECH, INC., priority 2018, dated 2025)
